These results are taken from patent publication US10598653B2, “Methods of blocking cancer stem cell growth” (Bionomics Inc., priority 2011, dated 2020).

The subject of assay [1] is CT1 primary colon tumor xenograft. As to the kind of experiment: CT1 primary colon tumor xenograft, combination with Irinotecan. As to conditions: 10 mg/kg IP once per day for the first 5 days. The format is in vivo, SCID beige female mice. How it is done:
Single agent in vivo efficacy of murine antibodies 14F7.1, 18G7.1, 5B10.1, 14A8.1, 1B3.5 was evaluated in a primary colon tumor xenograft model system using CT1 primary xenograft cells. CT1 is a primary colorectal (CRC) in vivo xenograft tumor established from a fresh CRC patient tumor sample. The mutational status was determined by Ion Torrent deep sequencing to identify oncogene mutations. Approximately 5-15% of CT1 tumors express GPR49. SCID beige female mice were inoculated with CT1 tumor cells and monitored for tumor growth. Mice were randomized at day 0 into groups of 10 when mean tumor volume reached 175 mm^3. Chemotherapeutic Irinotecan was administered IP at 10 mg/kg once per day for the first 5 days. The antibodies were administered intraperitoneally (i.p.) at 15 mg/kg administered twice weekly for 4 weeks. Tumors were measured at the indicated intervals post-inoculation for total tumor volume.

The test system of assay [2] is colon tumor cells re-implanted in secondary recipients. As to the kind of experiment: Secondary transplant tumor formation after GPR49 mAb+irinotecan. The format is in vivo, mice. As to conditions: 140 day follow-up. From the text:
Isolated tumor cells from control or GPR49 mAb+irinotecan treated tumors from the in vivo study outlined in Example 3 were harvested, pooled, dissociated and re-implanted in a limiting dilution secondary transplant assay to measure cancer stem cell frequency. For each treatment group, 8 mice were implanted with 10, 30, 100 cells. […]

For the next assay, the target named is T1, GPR49-Fc (Homo sapiens, UniProt O75473).
T1 construct: FLAG (C)
As to the kind of experiment: Solution affinity surface plasmon resonance of RSPO-1 on GPR49-Fc. As to conditions: initial binding rates, GPR49-Fc competition. Here is the method: Methods: Binding of RSPO to GPR49 was analyzed using solution affinity surface plasmon resonance (Day E S, et al. Biochemistry. 2005 Feb. 15; 44(6):1919-31). The method utilizes conditions of so-called “mass-transport-limited” binding, in which the initial rate of ligand binding (protein binding to the sensor chip) is proportional to the concentration of ligand in solution (BIApplications Handbook (1994) Chapter 6: Concentration measurement, pp 6-1-6-10, Pharmacia Biosensor AB). Under these conditions, binding of the soluble analyte (protein flowing over chip surface) to the immobilized protein on the chip is fast compared to the diffusion of the analyte into the dextran matrix on the chip surface. Therefore, the diffusion properties of the analyte and the concentration of analyte in solution flowing over the chip surface determine the rate at which analyte binds to the chip. In this experiment, the concentration of free RSPO-1 in solution is determined by the initial rate of binding to a CM5 Biacore chip containing immobilized GPR49-Fc. Into these RSPO-1 solutions were titrated the competing GPR49-Fc.

T1 sequence (O75473 with tags, fused parts or gaps): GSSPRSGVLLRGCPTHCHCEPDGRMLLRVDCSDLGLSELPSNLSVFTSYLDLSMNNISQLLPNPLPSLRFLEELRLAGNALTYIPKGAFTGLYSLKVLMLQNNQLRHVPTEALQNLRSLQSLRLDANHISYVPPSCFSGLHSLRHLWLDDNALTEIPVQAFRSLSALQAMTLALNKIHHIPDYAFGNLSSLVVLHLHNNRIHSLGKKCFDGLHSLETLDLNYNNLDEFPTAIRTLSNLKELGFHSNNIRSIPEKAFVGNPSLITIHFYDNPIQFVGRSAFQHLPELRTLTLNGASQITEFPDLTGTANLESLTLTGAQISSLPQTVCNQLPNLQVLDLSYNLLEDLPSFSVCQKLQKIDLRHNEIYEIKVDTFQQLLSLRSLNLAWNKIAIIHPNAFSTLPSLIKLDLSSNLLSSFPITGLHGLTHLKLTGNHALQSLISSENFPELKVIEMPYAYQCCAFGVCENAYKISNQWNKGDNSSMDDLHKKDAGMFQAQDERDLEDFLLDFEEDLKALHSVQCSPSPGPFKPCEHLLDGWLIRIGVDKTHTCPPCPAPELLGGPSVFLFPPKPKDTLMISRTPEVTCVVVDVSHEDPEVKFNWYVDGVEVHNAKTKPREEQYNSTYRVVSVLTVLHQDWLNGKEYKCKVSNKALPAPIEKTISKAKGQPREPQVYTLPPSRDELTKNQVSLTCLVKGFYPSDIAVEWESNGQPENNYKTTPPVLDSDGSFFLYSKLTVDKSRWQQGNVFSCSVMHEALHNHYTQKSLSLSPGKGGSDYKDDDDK

Regarding `CCc1c2c(nc3ccc(OC(=O)N4CCC(N5CCCCC5)CC4)cc13)-c1cc3c(c(=O)n1C2)COC(=O)[C@]3(O)CC` [Irinotecan], in assay [1], the “tumor inhibition, Irinotecan alone” value is 45%. In assay [2], this molecule yielded an average tumor size of 1729 mm^3.

B1: R-spondin 1: R-spondin family Wnt-pathway modulator protein, purchased from R& D systems (protein, UniProt Q2MKA7 21-263, looked up)
R-spondin-1: SRGIKGKRQRRISAEGSQACAKGCELCSEVNGCLKCSPKLFILLERNDIRQVGVCLPSCPPGYFDARNPDMNKCIKCKIEHCEACFSHNFCTKCKEGLYLHKGRCYPACPEGSSAANGTMECSSPAQCEMSEWSPWGPCSKKQQLCGFRRGSEERTRRVLHAPVGDHAACSDTKETRRCTVRRVPCPEGQKRRKGGQGRRENANRNLARKESKEAGAGSRRRKGQQQQQQQGTVGPLTSAGPA
Consider B1, for which, in the assay with GPR49-Fc, the binding profile result was “bi-phasic binding profile”.
